Where “and” joins values, the source holds several entries; their conditions need not be identical. Identical values can stand only once.
Assays:
Type in all cases: biochemical
biotinylated HRP = target: T1, biotinylated HRP (Armoracia rusticana, UniProt P00433); experiment: Model system for selection of SSIA (M280 btn-BSA-AK1-streptavidin particles + Btn-HRP:HRP)
T1 construct: purchased Roche Diagnostics, Indianapolis, Ind., USA
T1 sequence (P00433 31-338 limits assumed): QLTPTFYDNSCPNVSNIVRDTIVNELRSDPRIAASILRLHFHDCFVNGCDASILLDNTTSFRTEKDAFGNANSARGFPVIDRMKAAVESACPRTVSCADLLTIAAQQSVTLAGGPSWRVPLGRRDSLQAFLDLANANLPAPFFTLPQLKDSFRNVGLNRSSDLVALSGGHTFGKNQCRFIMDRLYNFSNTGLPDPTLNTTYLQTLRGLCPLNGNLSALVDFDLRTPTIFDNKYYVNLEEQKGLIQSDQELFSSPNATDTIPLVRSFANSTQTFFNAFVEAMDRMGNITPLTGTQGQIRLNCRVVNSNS

cTnI = experiment: Comparison of particle types in cTnI assay, with and without ascorbic acid; conditions: 150 μM ascorbic acid; each particle system; highest calibrator level; in words
Description: Signal generation with Silica and PMMA particles. A comparison of Dynal M-280, 3 um CML, 6 um CML, PMMA, silica and LodeStars particles was conducted using the cTnI assay described above. The preparation of each particle, bearing a coating of streptavidin, is described in the foregoing examples. Ascorbic acid, when present, was at 150 μM.

myoglobin = experiment: Myoglobin assay, AK-Ab1 particle + HRP-Ab2 conjugate; conditions: ascorbic acid employed
Description: This example describes a method of detecting myoglobin using a AK-Abl particle prepared as set forth in Example 3 and a HRP-Ab2 conjugate prepared as set forth in Example 4 where Ab2 represents an antibody to myoglobin. This method employed ascorbic acid to decrease background signal.
HRP-Ab2 conjugate suspensions were prepared at 1.0 μg/mL and contained either 0 or 1 mM ascorbic acid. Samples consisted of human serum samples with the indicated mounts of myoglobin added or no myoglobin as a control. The test procedure consisted of adding 20 μL of 1.0 μg/mL HRP-Ab2 conjugate and 30 μl of MES buffer containing 1 mg/mL BSA and 1 mg/mL MIgG, pH 5.9 to the reaction vessel. Next, 25 μL of patient serum sample was added, followed by 25 μL of 5.0 mg/mL AK-Abl conjugate suspension thereby obtaining 100 μL of total volume in the reaction vessel. After 15.2 minutes, […] of trigger solution A was added to the reaction vessel and the light intensity was recorded on the modified DxI instrument. Chemiluminescence intensity is expressed in Relative Light Units (RLU).

O=C1O[C@H]([C@@H](O)CO)C(O)=C1O [Ascorbic Acid, Ascorbic acid]
S/S0 (biotinylated HRP; Btn-HRP 0 ng/mL vs 0, SSIA 100 μM): 1 | B-HRP0 light intensity (biotinylated HRP; Btn-HRP 0 ng/mL, total HRP 500 ng/mL, SSIA final 100 μM): 151 and 97 | S1/S0 (biotinylated HRP; Btn-HRP 1 ng/mL vs 0, SSIA 100 μM): 6.6 and 7.8 | B-HRP1 light intensity (biotinylated HRP; Btn-HRP 1 ng/mL, total HRP 500 ng/mL, SSIA final 100 μM): 995 and 757 | S2/S0 (biotinylated HRP; Btn-HRP 10 ng/mL vs 0, SSIA 100 μM): 216.2 and 171.6 | B-HRP10 light intensity (biotinylated HRP; Btn-HRP 10 ng/mL, total HRP 500 ng/mL, SSIA final 100 μM): 32,568 and 16,641 | S3/S0 (biotinylated HRP; Btn-HRP 100 ng/mL vs 0, SSIA 100 μM): 30222.2 and 38064.9 | B-HRP100 light intensity (biotinylated HRP; Btn-HRP 100 ng/mL, total HRP 500 ng/mL, SSIA final 100 μM): 4,553,473 and 3,692,291 | S4/S0 (biotinylated HRP; Btn-HRP 250 ng/mL vs 0, SSIA 100 μM): 59176.1 and 62228.3 | B-HRP250 light intensity (biotinylated HRP; Btn-HRP 250 ng/mL, total HRP 500 ng/mL, SSIA final 100 μM): 8,915,869 and 6,036,145 | effect in the model system / utility as SSIA (biotinylated HRP; SSIA 100 μM, conclusion in words): demonstrating utility as SSIA | S/S0 (cTnI): markedly improved S/S0 | RLU (myoglobin; S0, 11.4 ng/mL): 1,183 RLU | RLU (myoglobin; S1, 56.3 ng/mL): 5,557 RLU | S/S0 (myoglobin; S1, 56.3 ng/mL): 5 | RLU (myoglobin; S2, 221 ng/mL): 31,947 RLU | S/S0 (myoglobin; S2, 221 ng/mL): 27 | RLU (myoglobin; S3, 864 ng/mL): 190,076 RLU | S/S0 (myoglobin; S3, 864 ng/mL): 161 | RLU (myoglobin; S4, 2016 ng/mL): 1,315,465 RLU | S/S0 (myoglobin; S4, 2016 ng/mL): 1,048 | RLU (myoglobin; S5, 3136 ng/mL): 4,667,341 RLU | S/S0 (myoglobin; S5, 3136 ng/mL): 3,945

Reference: patent US20100273189A1, “NON SEPARATION ASSAYS WITH SELECTIVE SIGNAL INHIBITORS” (BECKMAN COULTER, INC., priority 2009, published 2010)
